A short description of experiment [1]: Photochemical cleavage assays of incorporated nucleotide analogs (365 nm UV light, DT50). The format is physicochemical. The following applies: for DT50 in 1 mM NaN3, 50 mM DTT / DT50 in 1 mM NaN3, No DTT: 365 nm UV, 0.70 W/cm^2; for DT50 values: UV photochemical cleavage experiments. As for the experimental part:
As used herein, the term “DT50” refers to the amount of time required to cleavage 50% of the base analog incorporated in the primer-template complex.
To compare the rates of photochemical cleavage between the nucleotide analogs described here, a protocol was developed to deliver a daily light intensity output of 0.70±0.01 W/cm^2 to samples, see below.
The power supply was turned on for about 30 min prior to that of the lamp and recirculation bath as described by the manufacturer. The IR liquid filter was cooled to 9° C. Light intensity was determined using a model PM100 power meter (Thorlabs), a 1000 μm pinhole (Edmund Optics), a modified 0.5 mL Eppendorf tube cut in half, and a 3-axis manual translation stage (Newport), see FIG. 5. The half cut Eppendorf tube was positioned in front of the pinhole and power meter detector head to account for the geometric shape distortion of the light as it passes through a reaction solution. The translation stage was then used to align the tube/pinhole/detector device with the highest intensity from the arc beam.
To stabilize its output, the lamp was left on for one hour prior to intensity measurements. Thereafter, the measured power was adjusted by increasing the current from the power supply. In order to achieve intensity (I) of 0.70 W/cm^2, the measured power (P) was adjusted to ˜5.5 mW, according to the equation:
[formula] where r is the radius of pinhole.
The beam was then focused by placing an 0.5 mL Eppendorf tube into the sample holder, the tube of which was modified with an internal alignment card to provide reference lines for volume heights of 10 μL and 20 μL, see FIG. 5. The reference lines enabled the beam to be centered for a given reaction volume. Beam alignment was further verified by observing the mercury arc image of the lamp produced by the rear reflector. A second alignment card was placed into the rotating sample holder to view the image, which when properly aligned using the reflector would produce an inverted arc image on the arc gap itself. This step ensured that arc hotspots were not superimposed, which could cause overheating while maintaining a power output of ˜5.5 mW. The speed of the rotating sample holder was adjusted within a range of 1,200-1,350 rpm using a Nova-Strobe DA Plus stroboscope (Monarch Instrument) by adjusting the motor's torque with an adjustment screw.
Photochemical cleavage assays: Nucleotide analogs were incorporated using 10 μL reactions, as described for the PEP assays, at a final concentration of 100 nM. […] OligoTemplate-2, oligoTemplate-5, and oligoTemplate-4 each hybridized with BODIPY-FL labeled primer-1 were used for C^7-HOMedA, C^7-HOMedG, and HOMedU analogs, respectively. OligoTemplate-8 hybridized with BODIPY-FL labeled primer-3 was used to assay HOMedC analogs. Incorporated reactions were quenched with either 1 mM sodium azide solution; 1 mM sodium azide, 50 mM DTT solution; or reagents C-G (see key in FIG. 4), exposed to 365 nm ultraviolet (UV) light for various time points using our UV deprotector, and then placed on ice.

Experiment [2] concerns DNA synthesis. The experiment is described as follows: Termination assays (incorporation and termination of DNA synthesis). The format is biochemical. The conditions noted are these: 10 μM. From the text:
Another class of 3′-OH unblocked nucleotides has been described by Mitra et al. (2003) and Turcatti et al. (2008), which rely on steric hindrance of the bulky dye group to stop incorporation after the addition of the first nucleotide. It is noted that the substituted 2-nitrobenzyl nucleotide analogs described by Wu et al. (2007), Litosh et al. (2011), and Gardner et al., 2012 cause termination of DNA synthesis without the requirement of bulky substituents such as fluorescent dyes. A further class of 3′-unblocked nucleotides has been described by Helicos Biosciences. These nucleotides use a second nucleoside or nucleotide analog that acts as an inhibitor of DNA synthesis (Bowers et al., 2009; U.S. Pat. No. 7,476,734). A significant difference in termination properties is observed when comparing compounds of the present invention with those described by Bowers. For example, Bowers et al. described pre-steady-state kinetics employing two-base homopolymer templates, for which kpol(+2) rates were measured for all of their 3′-OH unblocked ‘virtual’ terminators. Bowers et al. conducted their termination experiments at submicromolar nucleotide concentrations (i.e., from 100 to 250 nM), termination assays. In contrast, several compounds of the present invention were performed at 10 μM over the time course of 0.5 to 20 min. […]

Where [3] appears, read: Table 1, C^7-HOMedA analogs, average ± 1SD, triplicate.
Where [4] appears, read: Table 3, reversible terminators.
Setting [5] is: Table 3, reversible terminators, [a] transient product considered as cleaved product.
Where [6] appears, read: Table 2, C^7-HOMedG analogs, average ± 1SD, triplicate.

Molecules are shown by their SMILES.

With `Nc1ncnc2c1c(COCc1ccccc1[N+](=O)[O-])cn2[C@H]1C[C@H](O)[C@@H](COP(=O)(O)OP(=O)(O)OP(=O)(O)O)O1` [dA.I, 7-(2-nitro-benzyloxy)methyl-7-deaza-2′-deoxyadenosine-5′-triphosphate], the “DT50 in 1 mM NaN3, 50 mM DTT” value in experiment [1] (setting [3]) and in experiment [1] (setting [4]) was 3.5 ± 0.1 s in each case. Also, the “DT50 in 1 mM NaN3, No DTT” value in experiment [1] (setting [3]) and in experiment [1] (setting [5]) was 3.6 ± 0.1 s each time.

Regarding `CC(C)(C)[C@H](OCc1cn([C@H]2C[C@H](O)[C@@H](COP(=O)(O)OP(=O)(O)OP(=O)(O)O)O2)c2ncnc(N)c12)c1ccccc1[N+](=O)[O-]` [dA.V, 7-[(S)-1-(2-nitrophenyl)-2,2-dimethyl-propyloxy]methyl-7-deaza-2′-deoxyadenosine-5′-triphosphate], the “DT50 in 1 mM NaN3, 50 mM DTT” value in experiment [1] (setting [4]) was determined as 2.0 ± 0.2 s. For the same compound, the “DT50 in 1 mM NaN3, No DTT” value in experiment [1] (setting [5]) turned out to be 2.1 ± 0.1 s.

As to `COc1ccc([N+](=O)[O-])c([C@@H](OCc2cn([C@H]3C[C@H](O)[C@@H](COP(=O)(O)OP(=O)(O)OP(=O)(O)O)O3)c3ncnc(N)c23)C(C)(C)C)c1` [dA.VI, 7-[(S)-1-(5-methoxy-2-nitrophenyl)-2,2-dimethyl-propyloxy]methyl-7-deaza-2′-deoxyadenosine-5′-triphosphate], in experiment [1] (setting [4]), the “DT50 in 1 mM NaN3, 50 mM DTT” value is 0.8 ± 0.1 s. The “DT50 in 1 mM NaN3, No DTT” value in experiment [1] (setting [5]) was 0.8 ± 0.1^[a] sec.

With `Nc1nc(=O)n([C@H]2C[C@H](O)[C@@H](COP(=O)(O)OP(=O)(O)OP(=O)(O)O)O2)cc1COCc1ccccc1[N+](=O)[O-]` [dC.I, 5-(2-nitrobenzyloxy)methyl-2′-deoxycytidine-5′-triphosphate], the “DT50 in 1 mM NaN3, 50 mM DTT” value in experiment [1] (setting [4]) was 1.6 ± 0.2 s. In addition, the “DT50 in 1 mM NaN3, No DTT” value in experiment [1] (setting [5]) turned out to be 2.0 ± 0.3 s. The same compound returned a DT50 values in experiment [1] of 2.0 s.

Regarding `CC(C)(C)[C@H](OCc1cn([C@H]2C[C@H](O)[C@@H](COP(=O)(O)OP(=O)(O)OP(=O)(O)O)O2)c(=O)nc1N)c1ccccc1[N+](=O)[O-]` [dC.V, 5-[(S)-1-(2-nitrophenyl)-2,2-dimethyl-propyloxy]methyl-2′-deoxycytidine-5′-triphosphate], the “DT50 in 1 mM NaN3, 50 mM DTT” value in experiment [1] (setting [4]) stood at 1.0 ± 0.2 s. In addition, the “DT50 in 1 mM NaN3, No DTT” value in experiment [1] (setting [5]) was 1.2 ± 0.1 s.

As to `COc1ccc([N+](=O)[O-])c([C@@H](OCc2cn([C@H]3C[C@H](O)[C@@H](COP(=O)(O)OP(=O)(O)OP(=O)(O)O)O3)c(=O)nc2N)C(C)(C)C)c1` [dC.VI, 5-[(S)-1-(5-methoxy-2-nitrophenyl)-2,2-dimethyl-propyloxy]methyl-2′-deoxycytidine-5′-triphosphate], the “DT50 in 1 mM NaN3, 50 mM DTT” value in experiment [1] (setting [4]) is 0.6 ± 0.1 s. In addition, in experiment [1] (setting [5]), the “DT50 in 1 mM NaN3, No DTT” value was 0.6 ± 0.1^[a] sec.

Regarding `Nc1nc2c(c(COCc3ccccc3[N+](=O)[O-])cn2[C@H]2C[C@H](O)[C@@H](COP(=O)(O)OP(=O)(O)OP(=O)(O)O)O2)c(=O)[nH]1` [dG.I, 7-(2-nitrobenzyloxy)methyl-7-deaza-2′-deoxyguanosine-5′-triphosphate], the “DT50 in 1 mM NaN3, 50 mM DTT” value in experiment [1] (setting [6]) and in experiment [1] (setting [4]) was 8.1 ± 0.2 s each time. Moreover, the “DT50 in 1 mM NaN3, No DTT” value in experiment [1] (setting [6]) and in experiment [1] (setting [5]) was 9.2 ± 0.3 s each time. Besides, the DT50 values in experiment [1] stood at 9.2 s.

For `CC(C)(C)[C@H](OCc1cn([C@H]2C[C@H](O)[C@@H](COP(=O)(O)OP(=O)(O)OP(=O)(O)O)O2)c2nc(N)[nH]c(=O)c12)c1ccccc1[N+](=O)[O-]` [dG.V, 7-[(S)-1-(2-nitrophenyl)-2,2-dimethyl-propyloxy]methyl-7-deaza-2′-deoxyguanosine-5′-triphosphate], the “DT50 in 1 mM NaN3, 50 mM DTT” value in experiment [1] (setting [4]) worked out at 2.9 ± 0.2 s. Moreover, the “DT50 in 1 mM NaN3, No DTT” value in experiment [1] (setting [5]) was 3.0 ± 0.1 s.

Regarding `CC(C)(C)C(OCc1cn([C@H]2C[C@H](O)[C@@H](COP(=O)(O)OP(=O)(O)OP(=O)(O)O)O2)c2nc(N)[nH]c(=O)c12)c1ccccc1[N+](=O)[O-]` (stereo partly shown) [dG.V.a ds1, 7-[1-(2-nitrophenyl)-2,2-dimethyl-propyloxy]methyl-7-deaza-2′-deoxyguanosine-5′-triphosphate], in experiment [1] (setting [6]), the “DT50 in 1 mM NaN3, 50 mM DTT” value was found to be 10.7 ± 0.2 s and the “DT50 in 1 mM NaN3, No DTT” value is 11.0 ± 0.4 s.

Turning to `COc1ccc([N+](=O)[O-])c(C(OCc2cn([C@H]3C[C@H](O)[C@@H](COP(=O)(O)OP(=O)(O)OP(=O)(O)O)O3)c3nc(N)[nH]c(=O)c23)C(C)(C)C)c1` (stereo partly shown) [dG.V.c ds1, 7-[1-(5-methoxy-2-nitrophenyl)-2,2-dimethyl-propyloxy]methyl-7-deaza-2′-deoxyguanosine-5′-triphosphate], in experiment [1] (setting [6]), the “DT50 in 1 mM NaN3, 50 mM DTT” value turned out to be 3.0 ± 0.1 s and the “DT50 in 1 mM NaN3, No DTT” value worked out at 3.5 ± 0.3 s. In addition, the “rate increases, dG.V.c compared with dG.V.a” value in experiment [1] (same isomer (ds1 or ds2) of dG.V.c vs dG.V.a) is listed as 3.6 ×. In addition, the “faster photochemical cleavage rates compared with the corresponding 4-OMe isomers” value in experiment [1] (α-tert-butyl C^7-HOMedG analogs, 5-OMe vs 4-OMe) came to 1.4 × fold.

Take `COc1ccc([N+](=O)[O-])c([C@@H](OCc2cn([C@H]3C[C@H](O)[C@@H](COP(=O)(O)OP(=O)(O)OP(=O)(O)O)O3)c3nc(N)[nH]c(=O)c23)C(C)(C)C)c1` [dG.VI, 7-[(S)-1-(5-methoxy-2-nitrophenyl)-2,2-dimethyl-propyloxy]methyl-7-deaza-2′-deoxyguanosine-5′-triphosphate]: the “DT50 in 1 mM NaN3, 50 mM DTT” value in experiment [1] (setting [4]) was 0.8 ± 0.1 s. Further, the “DT50 in 1 mM NaN3, No DTT” value in experiment [1] (setting [5]) worked out at 0.8 ± 0.1 s.

As to `COc1ccc([N+](=O)[O-])c([C@@H](OCc2cn([C@H]3C[C@H](O)[C@@H](COP(=O)(O)OP(=O)(O)OP(=O)(O)O)O3)c(=O)[nH]c2=O)C(C)(C)C)c1` [dU.VI, 5-[(S)-1-(5-Methoxy-2-nitrophenyl)-2,2-dimethyl-propyloxy]methyl-2′-deoxyuridine-5′-triphosphate], the “DT50 in 1 mM NaN3, 50 mM DTT” value in experiment [1] (setting [4]) stood at 0.7 ± 0.1 s. The “DT50 in 1 mM NaN3, No DTT” value in experiment [1] (setting [5]) is 0.7 ± 0.1^[a] sec. The “incorporated at the first base position” value in experiment [2] (by 2 min) worked out at 100%. Besides, the “signal at the expected second-base position (termination of DNA synthesis)” value in experiment [2] (incubation times up to 20 min) is “No appreciable signal could be detected”.

The record behind these values is patent US10041115B2, “3′-OH unblocked, fast photocleavable terminating nucleotides and methods for nucleic acid sequencing” (LASERGEN, INC., priority 2011, dated 2018).
